{
  "source": "paper PMC9898226",
  "about": "“Emergence of a proton exchange-based isomerization and lactonization mechanism in the plant coumarin synthase COSY” (Nature Communications, 2023)",
  "type_in_all_cases": "biochemical",
  "key": {"AtCOSY [1]": {"molecular_target": "T1, AtCOSY (Arabidopsis thaliana, UniProt Q8LF28)", "T1 construct": "gene COSY; N-terminal 8xHis tag with TEV site (pHis8-4), tag cleaved; E. coli BL21(DE3); domains 1-181, 182-229, 230-451", "T1 sequence (Q8LF28 1-451)": "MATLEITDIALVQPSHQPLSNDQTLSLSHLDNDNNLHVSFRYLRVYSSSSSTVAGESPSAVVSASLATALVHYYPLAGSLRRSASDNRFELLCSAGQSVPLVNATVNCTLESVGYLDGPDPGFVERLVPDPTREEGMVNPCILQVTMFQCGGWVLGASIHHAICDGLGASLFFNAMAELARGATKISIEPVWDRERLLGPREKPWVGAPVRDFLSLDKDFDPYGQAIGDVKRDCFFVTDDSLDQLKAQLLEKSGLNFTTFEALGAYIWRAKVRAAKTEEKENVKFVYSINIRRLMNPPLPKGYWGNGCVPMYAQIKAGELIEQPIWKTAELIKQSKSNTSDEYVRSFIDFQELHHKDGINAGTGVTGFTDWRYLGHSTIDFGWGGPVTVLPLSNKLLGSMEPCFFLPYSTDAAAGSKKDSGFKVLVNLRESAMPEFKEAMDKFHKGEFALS", "assay": "coupled At4CL1 assay, LC-MS of umbelliferone", "conditions": "substrate made in situ by At4CL1 from 2-hydroxy-p-coumaric acid (CAS 614-86-8), ATP, CoA, Mg2+; 20 mM HEPES"}, "SbCOSY": {"molecular_target": "T2, SbCOSY (Sorghum bicolor, UniProt C5Z4D6)", "T2 construct": "gene SORBI_3010G043700", "T2 sequence (C5Z4D6 1-456)": "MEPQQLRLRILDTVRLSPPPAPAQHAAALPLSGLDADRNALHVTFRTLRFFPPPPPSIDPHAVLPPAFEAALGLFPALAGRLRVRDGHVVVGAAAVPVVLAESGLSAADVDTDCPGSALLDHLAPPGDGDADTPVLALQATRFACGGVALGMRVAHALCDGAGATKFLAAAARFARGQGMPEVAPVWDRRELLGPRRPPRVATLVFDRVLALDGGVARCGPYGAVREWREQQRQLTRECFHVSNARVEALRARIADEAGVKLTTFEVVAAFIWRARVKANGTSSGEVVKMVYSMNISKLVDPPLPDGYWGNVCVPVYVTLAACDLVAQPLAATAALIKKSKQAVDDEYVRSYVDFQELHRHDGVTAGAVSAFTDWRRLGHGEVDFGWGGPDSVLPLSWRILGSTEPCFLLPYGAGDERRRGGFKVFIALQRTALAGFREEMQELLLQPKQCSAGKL", "assay": "coupled At4CL1 assay, LC-MS of scopoletin", "conditions": "substrate made in situ by At4CL1 from 6-hydroxyferulic acid, ATP, CoA, Mg2+; 20 mM HEPES; spontaneous background"}, "AtCOSY [2]": {"molecular_target": "T1, AtCOSY", "assay": "coupled At4CL1 assay, LC-MS of scopoletin", "conditions": "substrate made in situ by At4CL1 from 6-hydroxyferulic acid, ATP, CoA, Mg2+; 20 mM HEPES; spontaneous background"}, "GmCOSY": {"molecular_target": "T3, GmCOSY (Glycine max, UniProt A0A0R0H5A1)", "T3 construct": "gene LOC100817021", "T3 sequence (A0A0R0H5A1 1-452)": "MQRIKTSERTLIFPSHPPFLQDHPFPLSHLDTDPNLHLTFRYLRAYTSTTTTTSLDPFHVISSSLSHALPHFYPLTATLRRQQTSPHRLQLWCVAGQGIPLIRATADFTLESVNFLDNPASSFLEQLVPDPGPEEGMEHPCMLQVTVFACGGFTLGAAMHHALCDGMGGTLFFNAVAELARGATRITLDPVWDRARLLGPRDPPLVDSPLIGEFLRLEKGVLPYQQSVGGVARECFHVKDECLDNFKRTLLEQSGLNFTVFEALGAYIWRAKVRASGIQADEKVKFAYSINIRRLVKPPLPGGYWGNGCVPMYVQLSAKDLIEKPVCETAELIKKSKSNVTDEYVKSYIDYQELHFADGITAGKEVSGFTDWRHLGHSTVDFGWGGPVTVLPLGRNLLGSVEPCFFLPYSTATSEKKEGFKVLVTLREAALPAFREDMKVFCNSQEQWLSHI", "assay": "coupled At4CL1 assay, LC-MS of scopoletin", "conditions": "substrate made in situ by At4CL1 from 6-hydroxyferulic acid, ATP, CoA, Mg2+; 20 mM HEPES; spontaneous background"}, "StCOSY": {"molecular_target": "T4, StCOSY (Solanum tuberosum, UniProt M0ZYT4)", "T4 sequence (M0ZYT4 1-444)": "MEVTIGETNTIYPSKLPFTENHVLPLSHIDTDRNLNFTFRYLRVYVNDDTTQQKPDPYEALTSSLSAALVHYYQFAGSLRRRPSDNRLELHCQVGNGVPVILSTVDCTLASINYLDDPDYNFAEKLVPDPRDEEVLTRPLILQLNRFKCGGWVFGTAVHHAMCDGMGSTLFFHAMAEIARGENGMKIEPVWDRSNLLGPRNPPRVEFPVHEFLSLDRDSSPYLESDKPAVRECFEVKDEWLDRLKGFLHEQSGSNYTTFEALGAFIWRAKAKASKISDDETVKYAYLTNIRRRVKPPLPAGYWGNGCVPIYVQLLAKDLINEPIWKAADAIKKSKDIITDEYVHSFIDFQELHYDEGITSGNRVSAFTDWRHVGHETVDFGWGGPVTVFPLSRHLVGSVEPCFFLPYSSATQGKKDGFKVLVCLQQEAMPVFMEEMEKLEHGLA", "assay": "coupled At4CL1 assay, LC-MS of scopoletin", "conditions": "substrate made in situ by At4CL1 from 6-hydroxyferulic acid, ATP, CoA, Mg2+; 20 mM HEPES; spontaneous background"}},
  "data": [
    {"smiles": "CC(C)(COP(=O)(O)OP(=O)(O)OC[C@H]1O[C@@H](n2cnc3c(N)ncnc32)[C@H](O)[C@@H]1OP(=O)(O)O)[C@@H](O)C(=O)NCCC(=O)NCCSC(=O)/C=C/c1ccc(O)cc1O", "note": "[2-hydroxy-p-coumaroyl CoA]", "values": [
      {"measurement": "coupled At4CL1 assay, LC-MS of umbelliferone", "setting": "AtCOSY [1]", "result": "addition of AtCOSY resulted in significant acceleration of coumarin production"}
    ]},
    {"smiles": "COc1cc(/C=C/C(=O)SCCNC(=O)CCNC(=O)[C@H](O)C(C)(C)COP(=O)(O)OP(=O)(O)OC[C@H]2O[C@@H](n3cnc4c(N)ncnc43)[C@H](O)[C@@H]2OP(=O)(O)O)c(O)cc1O", "note": "[6-hydroxyferuloyl-CoA]", "values": [
      {"measurement": "coupled At4CL1 assay, LC-MS of scopoletin", "setting": "SbCOSY", "result": "GmCOSY, StCOSY and SbCOSY contain coumarin synthase activity comparable to that of AtCOSY"},
      {"measurement": "coupled At4CL1 assay, LC-MS of scopoletin", "setting": "AtCOSY [2]", "result": "addition of AtCOSY resulted in significant acceleration of coumarin production"},
      {"measurement": "coupled At4CL1 assay, LC-MS of scopoletin", "setting": "GmCOSY", "result": "GmCOSY, StCOSY and SbCOSY contain coumarin synthase activity comparable to that of AtCOSY"},
      {"measurement": "coupled At4CL1 assay, LC-MS of scopoletin", "setting": "StCOSY", "result": "GmCOSY, StCOSY and SbCOSY contain coumarin synthase activity comparable to that of AtCOSY"}
    ]}
  ]
}
